Laboratory results as given in patent US20250020651A1, “PERSONALIZED MODULATION THERAPY FOR CANCER” (Faeth Therapeutics, Inc., priority 2021, published 2025).

How the values were obtained:
[1] = system: Pancreatic cancer cells such as BxPC3, CFPAC1, PANC1, DANG, and PATU8902; test: Crystal Violet cell growth with chemotherapy drugs in complete or P/S/G free media; type: cell-based, Human; settings: P/S/G free media vs complete media, +10% dialyzed FBS, 3 days, Crystal Violet staining
Experimental: A study was performed to evaluate the efficacy of a disclosed composition in the treatment of cancer when combined with a chemotherapy drug. Pancreatic cancer cells such as BxPC3, CFPAC1, PANC1, DANG, and PATU8902 were treated with either Gemcitabine (GEM), Paclitaxel (PAC), GEM+PAC, and FOLFIRINOX (which is a combination of 5FU, Oxaliplatin, Folinic acid, and Irinotecan), in combination with complete media, or with media free of the amino acids […]), as indicated in FIG. 4 rows A-D. Cells were seeded in 96-well plates and in complete media+10% FBS. 24 hours later, cells were washed with PBS followed by addition of the indicated drugs with either complete or P/S/G free media+10% dialyzed FBS. Cells were grown for 3 more days, and cell growth was measured using Crystal Violet staining. […] Error bars denote the standard deviation.

[2] = system: Pancreatic cancer cell lines such as BxPC3, CFPAC1, PANC1, DANG and PATU8902; test: Crystal Violet cell growth with serabelisib in complete or P/S/G free media; type: cell-based, Human; settings: P/S/G free media vs complete media, 3 days, Crystal Violet staining
Experimental: A study was performed to evaluate the efficacy of disclosed compositions in the treatment of cancer when combined with a targeted anti-cancer therapy. Pancreatic cancer cell lines such as BxPC3, CFPAC1, PANC1, DANG and PATU8902 were treated with an alpha specific PI3K inhibitor, serabelisib. Cells were seeded in 96-well plates and in complete media+10% FBS. 24 hours later, cells were washed with PBS followed by addition of serabelisib with either complete or P/S/G free media+10% dialysed FBS (FIG. 6A-6F). Cells were grown for 3 more days and cell growth was measured using Crystal Violet staining. Error bars denote standard deviation. […] P/S/G starvation pushes the response curve down and to the left meaning lower concentrations of drug achieve the same cell kill.

SMILES | effect of restriction of proline, serine, and glycine on cell growth response to the drug [1] | cell kill by serabelisib under P/S/G starvation [2]
Nc1ccn([C@@H]2O[C@H](CO)[C@@H](O)C2(F)F)c(=O)n1 [gemcitabine, Gemcitabine] | sensitized cancer cells | –
CC(=O)O[C@H]1C(=O)[C@@]2(C)[C@H]([C@H](OC(=O)c3ccccc3)[C@]3(O)C[C@H](OC(=O)[C@H](O)[C@@H](NC(=O)c4ccccc4)c4ccccc4)C(C)=C1C3(C)C)[C@]1(OC(C)=O)CO[C@@H]1C[C@@H]2O [paclitaxel, Paclitaxel] | sensitized cancer cells | –
Nc1nc2cc(-c3ccc4ncc(C(=O)N5CCOCC5)n4c3)ccc2o1 [serabelisib] | – | improved cell kill at lower drug concentrations
